Patent publication US20220175675A1, “ENCAPSULATING MOLECULES IN FAT GLOBULES” (The Regents of the University of California, priority 2019, published 2022)
Marks after values point to notes of the source that are not given here. Blank lines part the entries; values can stand above or below the compound they belong to.

Key:
[1] = Measured or estimated, from references; cited from earlier work
[2] = Encapsulation of hydrophobic compounds into milk fat globules (loading capacity, encapsulation efficiency); assay type: physicochemical, bovine; settings: for maximal loading capacity (LC): maximal value over 50-2500 μM; for encapsulation efficiency (EE %), maximal/overall value: over tested concentrations
Protocol: Raw milk was procured from a local market and stored at 4° C. Milk was used for up to 4 days post purchase. MFGs were separated from raw milk using centrifugal separation following a modified version of the method by Gallier et al. (2010) (12). First, raw milk was diluted with Milli-Q water at 9:1 water to milk, and the solution was centrifuged at 3,000×g for 5 min using a fixed angle centrifuge rotor. Cream was then skimmed off the sides of the centrifuged tubes after discarding the aqueous phase. In order to remove more of the milk serum components, cream was reconstituted in water to reach 4% w/v, and subjected to another step of centrifugation at 3,000×g for 5 min Cream was collected as detailed prior, then reconstituted to 20% w/v in Milli-Q water. All separation steps were completed at room temperature.
Encapsulation of test compounds in MFGs was accomplished by mixing ethanolic stock solution of a compound with 20% w/v cream suspended in water. The mixture was gently inverted several times to mix, then allowed in incubate in the dark.
To test the effect of incubation temperature on the partitioning and encapsulation yield and efficiency, RA was added at 250 μM concentration and was allowed to incubate with MFGs for 30 min at 4, 22, and 40° C.
To quantify the amount of compound encapsulated in MFGs, cream was separated from ethanol-containing aqueous phase via centrifugal separation at 3,000 x g for 5 min. Cream was skimmed and added to methanol at 50 mg/mL and vortexed vigorously for 1 min, then centrifuged at 16,000×g for 10 min. Top layer of methanol was collected and absorbance was measured at appropriate wavelength for each compound. An absorbance blank was prepared following the same encapsulation and separation steps in the absence of compound. λmax in methanol (nm) for each compound is reported in Table 1.
Cream (20% w/v in Milli-Q water) that was separated following the steps in Example 2 was further separated via centrifugation at 3,000×g for 5 min. Fat content in cream was measured using a modified Folch method (13). An additional washing step was incorporated where the chloroform/water interface was washed with 1:1 water/methanol solution.

[3] = Encapsulation of hydrophobic compounds into milk fat globules (loading capacity, encapsulation efficiency); assay type: physicochemical, bovine; settings: 250 μM, 1% v/v ethanol, room temperature
[4] = Water/octanol partitioning coefficient, Log P
[5] = 150 μM added compound, 10% v/v ethanol, 30 min, room temperature
[6] = 200 μM added compound, 10% v/v ethanol, 30 min, room temperature
[7] = 250 μM added compound, 10% v/v ethanol, 30 min, room temperature
[8] = 500 μM added compound, 10% v/v ethanol, 30 min, room temperature
[9] = 1000 μM added compound, 10% v/v ethanol, 30 min, room temperature
[10] = 1500 μM added compound, 10% v/v ethanol, 30 min, room temperature
[11] = 2000 μM added compound, 10% v/v ethanol, 30 min, room temperature
[12] = 2500 μM added compound, 10% v/v ethanol, 30 min, room temperature
[13] = 10% v/v ethanol, 30 min, room temperature
[14] = 1% v/v ethanol, 250 μM, 30 min, room temperature
[15] = 2% v/v ethanol, 250 μM, 30 min, room temperature
[16] = 4% v/v ethanol, 250 μM, 30 min, room temperature
[17] = 4 °C, 30 min, 250 μM, 1% v/v ethanol
[18] = 6% v/v ethanol, 250 μM, 30 min, room temperature
[19] = 8% v/v ethanol, 250 μM, 30 min, room temperature
[20] = 10% v/v ethanol, 250 μM, 30 min, room temperature
[21] = 22 °C, 30 min, 250 μM, 1% v/v ethanol
[22] = 40 °C, 30 min, 250 μM, 1% v/v ethanol
[23] = 40 °C, 30 min, 250 μM, 1% v/v ethanol, listed as RA
[24] = 30 min incubation, 250 μM, 1% v/v ethanol, room temperature

SMILES: C=CCc1ccc(O)c(OC)c1 [Eugenol]
- Water/octanol partitioning coefficient, Log P [1]: 2.61-2.66 ^(18)
- % Encapsulation efficiency [2, 5]: 98.05 ± 4.10%
- % Encapsulation efficiency [2, 6]: 95.43 ± 7.46%
- % Encapsulation efficiency [2, 7]: 86.64 ± 7.23%
- % Encapsulation efficiency [2, 8]: 85.14 ± 6.33%
- % Encapsulation efficiency [2, 9]: 80.94 ± 2.42 %
- % Encapsulation efficiency [2, 10]: 82.09 ± 134 %
- % Encapsulation efficiency [2, 11]: 80.86 ± 2.58 %
- % Encapsulation efficiency [2, 12]: 80.71 ± 3.39 %
- maximal loading capacity (LC) [2, 13]: 39.65 μg per gram of milk fat
- encapsulation efficiency (EE %), maximal/overall value ([2]; 10% v/v ethanol, 30 min): approximately 98%
- logP (physchem): ~2.6

- % Encapsulation efficiency ([2]; 50 μM added compound, 10% v/v ethanol, 30 min, room temperature): 107.46 ± 6.29%
- % Encapsulation efficiency ([2]; 100 μM added compound, 10% v/v ethanol, 30 min, room temperature): 100.56 ± 3.83%
- % Encapsulation efficiency [2, 5]: 111.73 ± 6.32%
- % Encapsulation efficiency [2, 6]: 110.33 ± 3.15%
- % Encapsulation efficiency [2, 7]: 105.92 ± 4.41%
- % Encapsulation efficiency [2, 8]: 76.40 ± 9.65 %
- % Encapsulation efficiency [2, 9]: 86.09 ± 12.48 %
- % Encapsulation efficiency [2, 10]: 82.14 ± 15.94 %
- % Encapsulation efficiency [2, 11]: 76.89 ± 9.88 %
- % Encapsulation efficiency [2, 12]: 75.45 ± 5.19 %
- % Encapsulation efficiency [2, 14]: 77.86 ± 5.54^ %
- Loading capacity ([2]; 1% v/v ethanol, 250 μM, 30 min, room temperature, listed as RA): 7.6 μg retinyl acetate/g of milk f
- EE % range with increased ethanol concentration ([2]; 1 to 10% v/v ethanol, 250 μM, 30 min): 78-107%
- % Encapsulation efficiency [2, 15]: 83.40 ± 11.73%
- % Encapsulation efficiency [2, 16]: 101.24 ± 4.76 %
- % Encapsulation efficiency [2, 17]: 53.52 ± 3.97 ^a %
- % Encapsulation efficiency [2, 18]: 106.90 ± 10.93 %
- % Encapsulation efficiency [2, 19]: 107.65 ± 6.42 %
- % Encapsulation efficiency [2, 20]: 107.53 ± 5.15 %
- Loading capacity ([2]; 10% v/v ethanol, 250 μM, 30 min, room temperature, listed as RA): 10.57 μg retinyl acetate/g of milk f
- % Encapsulation efficiency [2, 21]: 72.07 ± 3.85 ^b %
- % Encapsulation efficiency [2, 22]: 124.42 ± 6.52 ^c %
- % Encapsulation efficiency [2, 23]: 124.42%
- Loading capacity [2, 23]: 12.23 μg retinyl acetate/g of milk f
- % Encapsulation efficiency ([2]; 10 min incubation, 250 μM, 1% v/v ethanol, room temperature): 52.02 ± 4.66^ %
- % Encapsulation efficiency ([2]; 20 min incubation, 250 μM, 1% v/v ethanol, room temperature): 65.66 ± 6.40 %
- % Encapsulation efficiency [2, 24]: 76.11 ± 0.89 %
- % Encapsulation efficiency ([2]; 40 min incubation, 250 μM, 1% v/v ethanol, room temperature): 78.98 ± 5.13 %
- % Encapsulation efficiency ([2]; 60 min incubation, 250 μM, 1% v/v ethanol, room temperature): 94.38 ± 2.25 *†‡¥ %
- maximal loading capacity (LC) [2, 13]: 74.15 μg per gram of milk fat
- encapsulation efficiency (EE %), maximal/overall value ([2]; 10% v/v ethanol, 30 min): ≥ 100%
- % Encapsulation efficiency ([3]; 50 min incubation): 89.38 ± 4.66 %
- Loading capacity ([3]; 60 min incubation, listed as RA): 9.28 μg retinyl acetate/g of milk f
- logP [4]: ~8
SMILES: CC(=O)OC/C=C(C)/C=C/C=C(C)/C=C/C1=C(C)CCCC1(C)C [Retinyl acetate]
- Water/octanol partitioning coefficient, Log P [1]: 6.3-9.81 ^(21, 23)
- Loading capacity [2, 14]: 7.65 ± 0.54^ μg retinyl acetate/g of milk f
- Loading capacity [2, 15]: 8.20 ± 1.15^ μg retinyl acetate/g of milk f
- Loading capacity [2, 16]: 9.95 ± 0.47 μg retinyl acetate/g of milk f
- Loading capacity [2, 17]: 5.26 ± 0.39 ^a μg retinyl acetate/g of milk f
- Loading capacity [2, 18]: 10.51 ± 1.07 μg retinyl acetate/g of milk f
- Loading capacity [2, 19]: 10.58 ± 0.63 μg retinyl acetate/g of milk f
- Loading capacity [2, 20]: 10.57 ± 0.51 μg retinyl acetate/g of milk f
- Loading capacity [2, 21]: 7.08 ± 0.38 ^b μg retinyl acetate/g of milk f
- Loading capacity [2, 22]: 12.23 ± 0.64 ^c μg retinyl acetate/g of milk f
- Loading capacity [2, 24]: 7.48 ± 0.09 μg retinyl acetate/g of milk f
- Loading capacity ([2]; 50 min incubation, 250 μM, 1% v/v ethanol, room temperature): 8.78 ± 0.46 μg retinyl acetate/g of milk f
- Loading capacity ([3]; 10 min incubation): 5.11 ± 0.46^ μg retinyl acetate/g of milk f
- Loading capacity ([3]; 20 min incubation): 6.45 ± 0.63 μg retinyl acetate/g of milk f
- Loading capacity ([3]; 40 min incubation): 7.76 ± 0.50 μg retinyl acetate/g of milk f
- Loading capacity ([3]; 60 min incubation): 9.28 ± 0.22 *†‡¥ μg retinyl acetate/g of milk f
